Data as given in publication PMC3004914, “Classification of Drugs Based on Properties of Sodium Channel Inhibition: A Comparative Automated Patch-Clamp Study” (PLoS ONE, 2010).
Values joined by “and” are separate entries in the source; they are usually repeats but may differ in a detail not shown here. Identical values can stand only once. Like-named read-outs stand apart in the source and are kept apart here.

What was measured:
[1] = target: T1, rNav1.2 sodium channels (HEK-293 cells) (Rattus norvegicus, UniProt P04775); test: steady-state inactivation protocol (availability curves), QPatch automated patch-clamp; type: cell-based
From the text: (§1) A)–D) Peak amplitudes of evoked currents (5 Hz trains of 5 depolarizations from −90 to −10 mV) are plotted against time. Black dots: Control. Grey dots: Drug perfusion. […] Calculation of properties of inhibition is illustrated. […] E) Calculation of Kr and Ki values from steady-state availability curves.
Standard steady-state inactivation protocols were used to measure the shift of steady-state availability curve caused by the drugs. Currents were evoked by a 10 ms test pulse to −10 mV, preceded by 400 ms pre-pulses from −150 to −30 mV. […] Because the inhibition at hyperpolarized potentials (Inh−150), and the shift of the availability curves (ΔV1/2) are both concentration-dependent properties, we calculated affinities to hyperpolarized and depolarized states (“resting state affinity”: Kr, and “inactivated state affinity”: Ki), which, on the other hand, are concentration-independent characteristics of individual drugs. Calculation of Kr and Ki values are described in Materials and Methods, and illustrated in Figure 1E. State-dependence (SD) was quantified as the ratio Kr/Ki.
(§2) HEK-293 cells stably expressing rNav1.2 sodium channels were obtained from NeuroSearch (Ballerup, Denmark).
(§3) Cells were automatically prepared for application to the chips (centrifuged and washed twice, then resuspended in extracellular solution) as described previously. Composition of the extracellular solution was: (in mM): 140 NaCl, 3 KCl, 1 CaCl2, 1 MgCl2, 0.1 CdCl2, 20 TEA-Cl, 5 HEPES, adjusted to pH 7.3, Osmolality: ∼320 mOsm.
(§4) All electrophysiological experiments were conducted on Qpatch-16 or QPatch HT instruments using QPlate™ chips. For a detailed description of the instrument and the patch-clamp chips see [37], [38]. Data were sampled at a frequency of 25 kHz and filtered at 5 kHz. […] The amplifier was controlled and the data were collected by the Sophion QPatch client software. For initial data analysis the QPatch software was used. Built-in amplifiers provide an improved method for series resistance compensation. Leak subtraction (based on a standard P/n protocol) was used to subtract the capacitive component of currents.
Inactivated affinity (Ki) values were calculated assuming a simple four-state model of drug binding and channel gating, using two separate methods: (1) from the shift of the availability curve (ΔV1/2), the slope of the Boltzmann fit of the availability curve (k) and Kr, using the formula described by Bean, Cohen and Tsien (Ki−ΔV1/2; see Figure 1E), or (2) from the apparent affinity (Kapp) at a certain pre-pulse potential, which was calculated from the inhibition (e.g. Inh−60) as described above, and the availability (h) at the same pre-pulse potential, using the formula from Kuo and Bean (Figure 1E). […] (Arithmetic means and SEM values are given in Results S7.)

sodium channels = conditions: averaged literature data, cited from earlier work; for Ki: read-out: Ki−Lit; for Kd: read-out: Kr−Lit
[2] = human plasma, cited from earlier work
[3] = target: T1, rNav1.2 sodium channels (HEK-293 cells); test: 5 Hz train protocol, QPatch automated patch-clamp; type: cell-based; conditions: for Rev (reversibility): Rev = A5/A1 after washout; for potency estimated from few doses: −90 mV, read-out: IC50;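 for UD (use-dependence of the inhibition): UD = (A3/A4)/(A1/A2) as ratios of peak amplitudes from Figure 1A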
From the text: The dynamics of the onset and offset of inhibition was monitored using 5 Hz trains of five depolarizing pulses from a holding potential of −90 mV to −10 mV. The trains were repeated every 20 s. Drugs were applied after 10 control trains and 10 trains were delivered in the presence of the drug. The drug was then washed out, and the 10 trains were repeated.
We measured inhibition (Inh; from which we calculated IC50 values as described in Materials and Methods), reversibility of inhibition (Rev) and use-dependence (UD), as well as time constant of onset (τon) and offset (τoff). The calculation of IC50, quantification of Rev and UD, and the determination of time constants are illustrated in Figure 1A. Because τon should be concentration-dependent if we assume a single binding reaction, we excluded it from the analyses. […] Comments on the interpretation of these properties (Rev, […] and UD) are in Results S1.
as §1, §2, §3, §4
From this protocol we extracted five parameters, as illustrated in Figure 1A. We calculated inhibition of a single “cc” concentration: Inh = (amplitudectr – amplitudedrug)/amplitudectr.

[4] = HEK293, 300 µM, read-out: Inh (inhibited fraction) at holding potential −150 mV
[5] = arithmetic mean, 300 µM, read-out: Ki-Kapp arith
[6] = arithmetic mean, 300 µM, read-out: Kr arith
[7] = geometric mean, from Inh at −150 mV, 300 µM, read-out: Kr (resting state affinity)
[8] = geometric mean, from apparent affinity, 300 µM, read-out: Ki−Kapp (inactivated state affinity)
[9] = 100 μM, 500 s assigned where irreversible
[10] = HEK293, 100 μM, −90 mV holding potential, 5 Hz train, read-out: Inh (inhibited fraction)
[11] = HEK293, calculated from Inh at single concentration 100 μM, 5 Hz train
[12] = arithmetic mean, 100 µM, read-out: Ki-Kapp arith
[13] = arithmetic mean, 100 µM, read-out: Ki-ΔV1/2 arith
[14] = arithmetic mean, 100 µM, read-out: Kr arith
[15] = geometric mean, from Inh at −150 mV, 100 µM, read-out: Kr (resting state affinity)
[16] = geometric mean, from apparent affinity, 100 µM, read-out: Ki−Kapp (inactivated state affinity)
[17] = geometric mean, from shift of availability curve, 100 µM, read-out: Ki−ΔV1/2 (inactivated state affinity)

T1 sequence (P04775 whole entry, the tested form may be a part): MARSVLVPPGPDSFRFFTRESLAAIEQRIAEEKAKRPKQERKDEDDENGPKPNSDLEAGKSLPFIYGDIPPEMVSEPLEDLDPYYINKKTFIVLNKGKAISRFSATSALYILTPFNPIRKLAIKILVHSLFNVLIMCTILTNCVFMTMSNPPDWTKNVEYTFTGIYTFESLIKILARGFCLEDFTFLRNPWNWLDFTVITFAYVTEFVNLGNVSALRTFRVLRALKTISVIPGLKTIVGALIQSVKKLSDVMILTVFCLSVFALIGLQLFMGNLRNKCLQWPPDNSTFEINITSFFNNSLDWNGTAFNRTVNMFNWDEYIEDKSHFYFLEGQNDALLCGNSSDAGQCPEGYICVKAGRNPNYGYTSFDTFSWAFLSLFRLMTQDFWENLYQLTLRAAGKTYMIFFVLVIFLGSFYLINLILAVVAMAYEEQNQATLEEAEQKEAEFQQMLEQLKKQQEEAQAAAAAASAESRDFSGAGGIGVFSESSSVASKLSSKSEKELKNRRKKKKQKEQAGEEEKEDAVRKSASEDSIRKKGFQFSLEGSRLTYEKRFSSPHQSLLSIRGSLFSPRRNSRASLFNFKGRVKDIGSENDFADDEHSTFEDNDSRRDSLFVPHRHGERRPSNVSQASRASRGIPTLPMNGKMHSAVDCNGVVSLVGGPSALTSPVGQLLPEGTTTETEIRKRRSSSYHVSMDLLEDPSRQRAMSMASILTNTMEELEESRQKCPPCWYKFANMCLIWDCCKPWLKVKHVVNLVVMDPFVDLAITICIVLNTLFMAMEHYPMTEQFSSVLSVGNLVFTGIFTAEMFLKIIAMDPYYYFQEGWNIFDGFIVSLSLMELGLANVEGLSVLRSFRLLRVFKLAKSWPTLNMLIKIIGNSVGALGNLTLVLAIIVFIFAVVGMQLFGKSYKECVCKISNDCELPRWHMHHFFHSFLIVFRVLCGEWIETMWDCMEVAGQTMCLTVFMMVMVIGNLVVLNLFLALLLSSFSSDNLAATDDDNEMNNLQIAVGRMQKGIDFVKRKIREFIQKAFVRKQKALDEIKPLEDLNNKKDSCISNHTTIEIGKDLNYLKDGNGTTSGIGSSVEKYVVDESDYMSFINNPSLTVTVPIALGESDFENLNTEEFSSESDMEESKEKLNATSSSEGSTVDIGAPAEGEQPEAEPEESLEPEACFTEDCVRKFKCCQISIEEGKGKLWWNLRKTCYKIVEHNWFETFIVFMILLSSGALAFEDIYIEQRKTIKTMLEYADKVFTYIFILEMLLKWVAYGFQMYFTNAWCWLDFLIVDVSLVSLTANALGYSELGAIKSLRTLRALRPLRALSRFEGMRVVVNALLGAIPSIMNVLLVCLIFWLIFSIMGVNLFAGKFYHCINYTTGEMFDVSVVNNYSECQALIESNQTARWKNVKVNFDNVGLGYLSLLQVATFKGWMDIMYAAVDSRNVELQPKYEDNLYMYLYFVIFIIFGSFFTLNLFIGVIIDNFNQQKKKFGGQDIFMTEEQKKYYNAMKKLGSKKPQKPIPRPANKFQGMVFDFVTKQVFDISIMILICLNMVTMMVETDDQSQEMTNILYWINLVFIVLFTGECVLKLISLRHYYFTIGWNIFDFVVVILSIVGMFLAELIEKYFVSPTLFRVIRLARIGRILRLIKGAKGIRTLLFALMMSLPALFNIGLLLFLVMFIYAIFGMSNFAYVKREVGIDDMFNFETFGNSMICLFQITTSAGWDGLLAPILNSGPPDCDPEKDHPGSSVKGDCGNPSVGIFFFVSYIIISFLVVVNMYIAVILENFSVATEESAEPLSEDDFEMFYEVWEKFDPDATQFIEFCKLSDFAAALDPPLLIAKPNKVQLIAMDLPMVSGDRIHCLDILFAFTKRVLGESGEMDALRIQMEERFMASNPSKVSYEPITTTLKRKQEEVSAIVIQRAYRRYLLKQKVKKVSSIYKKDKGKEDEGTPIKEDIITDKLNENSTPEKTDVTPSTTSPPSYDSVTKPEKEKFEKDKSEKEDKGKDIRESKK

Row | τon ([3]; 100 μM) | UD (use-dependence of the inhibition) ([3]; 100 μM, 5 Hz train) | τoff [3, 9] | Rev (reversibility) ([3]; 100 μM) | inhibition at 100 µM [3, 10] | potency estimated from few doses [3, 11] | ΔV1/2 (shift of availability curve) ([1]; 100 μM) | Ki [1, 12] | Ki [1, 13] | Kd [1, 14] | SMILES | ΔV1/2 (shift of availability curve) ([1]; 300 μM) | inhibition at 300 µM [1, 4] | Ki [1, 5] | Kd [1, 6] | Kd [1, 7] | Ki [1, 8] | Ki (sodium channels) | Kd (sodium channels) | plasma conc. ([2]; as printed in each cell) | plasma conc. ([2]; as printed in the µg/ml cell) | other results
1 | 8.13 s | 1.21 | 13.24 s | 0.89 | 16% | 355 µM |  |  |  |  | COc1ccccc1OCC(O)CN1CCN(CC(=O)Nc2c(C)cccc2C)CC1 (stereo not drawn) [RAN, Ranolazine] | −5.52 mV | 42% | 19.7 µM | 587 µM | 435 µM | 10.7 µM | 75 µM | 1000 µM | 3.59 [52] µg/ml | 7.173 µM | Ki ([1]; arithmetic mean, 300 µM, read-out: Ki-ΔV1/2 arith): 77.9 µM; Ki ([1]; geometric mean, from shift of availability curve, 300 µM, read-out: Ki−ΔV1/2 (inactivated state affinity)): 66.8 µM; (IC50/Ki) / (Kr/Ki) ratio ([3]; from IC50 (5 Hz train) and Kr, Ki (steady-state inactivation)): 0.94
2 |  |  |  |  |  |  |  |  |  |  | Cc1cccc(C)c1OCC(C)N (stereo not drawn) [MEX, Mexiletine] | −10.3 mV | 32% | 19.2 µM | 662 µM | 638 µM | 17.9 µM | 12.4 µM | 395 µM | 2 [44] µg/ml | 9.271 µM | Ki ([1]; Ki-ΔV1/2 arith, arithmetic mean, 300 µM): 37.3 µM; Ki ([1]; Ki−ΔV1/2 (inactivated state affinity), geometric mean, from shift of availability curve, 300 µM): 26.8 µM; τoff ([3]; 300 μM): 12.93 s; τon ([3]; 300 μM, 3 s assigned where too short to be resolved): 8.6 s; UD (use-dependence of the inhibition) ([3]; 300 μM, 5 Hz train): 1.39; Rev (reversibility) ([3]; 300 μM): 0.78; inhibition at 300 µM ([3]; HEK293, 300 μM, −90 mV holding potential, 5 Hz train, read-out: Inh (inhibited fraction)): 57%; potency estimated from few doses ([3]; HEK293, calculated from Inh at single concentration 300 μM, 5 Hz train): 231 µM
3 | 4.1 s | 1.16 | 15.21 s | 0.8 |  |  | −7.66 mV | 7.08 µM | 14.6 µM | 135 µM | C[Si](C)(Cc1ccc(F)cc1)CN1CCCCC1 [SIL, Silperisone] |  |  |  |  |  |  | 34.9 µM | 340 µM | 0.45 [56] µg/ml | 1.484 µM | Inh (inhibited fraction) at holding potential −150 mV ([1]; 100 μM): 0.43; Kd [1, 15]: 133 µM; Ki [1, 16]: 6.7 µM; Ki [1, 17]: 14 µM; Inh (inhibited fraction) ([3]; 100 μM, −90 mV holding potential, 5 Hz train): 0.45; potency estimated from few doses ([3]; calculated from Inh at single concentration 100 μM, 5 Hz train): 121 µM
4 |  |  |  |  |  |  |  |  |  |  | CNCCCN1c2ccccc2CCc2ccccc21 [DMI, Desipramine] |  |  |  |  |  |  | 1.15 µM | 29.2 µM | 0.1 [44] µg/ml | 0.330 µM | inhibition at 30 µM ([1]; HEK293, 30 µM, read-out: Inh (inhibited fraction) at holding potential −150 mV): 35%; τon ([3]; 30 μM): 32.02 s; UD (use-dependence of the inhibition) ([3]; 30 μM, 5 Hz train): 1.32; τoff ([3]; 30 μM, 500 s assigned where irreversible): 51.82 s; Rev (reversibility) ([3]; 30 μM): 0.43; inhibition at 30 µM ([3]; HEK293, 30 μM, −90 mV holding potential, 5 Hz train, read-out: Inh (inhibited fraction)): 62%; potency estimated from few doses ([3]; HEK293, calculated from Inh at single concentration 30 μM, 5 Hz train): 18.3 µM
5 | 5.57 s | 1.14 | 7.42 s | 0.95 | 23% | 336 µM | −6.47 mV | 24.3 µM | 43.2 µM | 399 µM | Cc1ccc(C(=O)C(C)CN2CCCCC2)cc1 (stereo not drawn) [TOL, Tolperisone] |  |  |  |  |  |  | 5.07 µM | 384 µM | 0.43 [57] µg/ml | 1.508 µM | inhibition at 100 µM ([1]; HEK293, 100 µM, read-out: Inh (inhibited fraction) at holding potential −150 mV): 21%; Kd [1, 15]: 391 µM; Ki [1, 16]: 21 µM and 21.1 µM; Ki [1, 17]: 30.9 µM
